Columns and labels:
[1] = molecular target: T1, Alpha-1A adrenergic receptor (Rattus norvegicus, UniProt P43140); assay: DRUGMATRIX: Alpha-1A adrenergic receptor radioligand binding (ligand: prazosin); format: cell membranes, Wistar, Submaxillary gland, Membrane; conditions: Not Active = under 50% inhibition at 10 µM; for Ki: read-out: Ki
T1 sequence (P43140 whole entry): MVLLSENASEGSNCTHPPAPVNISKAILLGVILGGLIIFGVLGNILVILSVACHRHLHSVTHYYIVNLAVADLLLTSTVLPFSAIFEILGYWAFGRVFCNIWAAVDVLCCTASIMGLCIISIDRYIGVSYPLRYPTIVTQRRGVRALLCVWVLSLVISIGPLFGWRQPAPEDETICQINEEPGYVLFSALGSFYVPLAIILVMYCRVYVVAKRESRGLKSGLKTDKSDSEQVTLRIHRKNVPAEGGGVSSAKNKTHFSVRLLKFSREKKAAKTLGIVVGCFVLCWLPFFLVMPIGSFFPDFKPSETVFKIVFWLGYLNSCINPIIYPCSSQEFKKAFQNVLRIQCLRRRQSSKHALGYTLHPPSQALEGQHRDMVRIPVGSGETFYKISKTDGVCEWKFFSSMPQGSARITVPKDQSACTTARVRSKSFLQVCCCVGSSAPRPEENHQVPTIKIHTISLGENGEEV

[2] = molecular target: T2, Muscarinic acetylcholine receptor M2 (Homo sapiens, UniProt P08172); format: cell membranes, CHO-K1, Membrane; conditions: for Ki: read-out: Ki; on all read-outs here: in other assays of this panel Not Active means under 50% inhibition at 10 µM
T2 sequence (P08172 whole entry): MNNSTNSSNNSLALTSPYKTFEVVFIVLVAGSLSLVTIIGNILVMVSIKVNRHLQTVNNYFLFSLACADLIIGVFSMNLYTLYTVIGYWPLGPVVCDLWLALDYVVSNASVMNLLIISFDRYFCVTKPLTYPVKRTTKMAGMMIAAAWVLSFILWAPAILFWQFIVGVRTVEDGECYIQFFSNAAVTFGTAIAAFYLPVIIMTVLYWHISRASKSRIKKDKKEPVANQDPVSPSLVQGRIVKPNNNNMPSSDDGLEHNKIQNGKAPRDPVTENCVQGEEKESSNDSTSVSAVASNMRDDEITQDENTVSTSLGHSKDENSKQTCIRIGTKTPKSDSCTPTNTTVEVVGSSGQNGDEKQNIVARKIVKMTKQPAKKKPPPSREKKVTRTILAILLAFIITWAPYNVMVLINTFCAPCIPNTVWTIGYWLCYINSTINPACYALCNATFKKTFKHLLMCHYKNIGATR

[3] = molecular target: Protein kinase C alpha type (Homo sapiens, UniProt P17252); format: cell-based; conditions: sf9;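 further: inhibition of PKCalpha kinase activity measured in an enzyme assay with histone as the phosphorylation substrate; in other assays of this panel Not Active means under 50% inhibition at 10 µM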
[4] = DRUGMATRIX: Glutamate, Kainate radioligand binding (ligand: [3H] Kainic acid); format: cell membranes, Rattus norvegicus, Wistar, Brain, Membrane; conditions: Not Active = under 50% inhibition at 10 µM
[5] = molecular target: T3, Vasoactive intestinal polypeptide receptor 1 (Homo sapiens, UniProt P32241); format: cell membranes, Membrane; conditions: ht-29; further: in other assays of this panel Not Active means under 50% inhibition at 10 µM
T3 sequence (P32241 whole entry): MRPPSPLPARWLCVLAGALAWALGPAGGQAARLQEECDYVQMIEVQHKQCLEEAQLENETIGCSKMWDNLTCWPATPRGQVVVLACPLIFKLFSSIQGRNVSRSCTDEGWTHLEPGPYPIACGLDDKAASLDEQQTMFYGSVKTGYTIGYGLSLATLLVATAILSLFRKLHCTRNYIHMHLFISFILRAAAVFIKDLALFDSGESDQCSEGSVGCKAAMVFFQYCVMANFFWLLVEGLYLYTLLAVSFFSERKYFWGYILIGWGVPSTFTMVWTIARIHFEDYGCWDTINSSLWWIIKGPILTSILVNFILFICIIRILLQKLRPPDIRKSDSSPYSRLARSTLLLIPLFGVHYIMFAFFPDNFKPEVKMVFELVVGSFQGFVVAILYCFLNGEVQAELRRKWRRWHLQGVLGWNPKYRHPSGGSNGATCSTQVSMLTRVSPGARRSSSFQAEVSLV

[6] = molecular target: Delta-type opioid receptor (Homo sapiens, UniProt P41143); format: cell membranes, HEK293, Membrane; conditions: hek293; further: in other assays of this panel Not Active means under 50% inhibition at 10 µM
[7] = DRUGMATRIX: Atrial Natriuretic Factor (ANF) radioligand binding (ligand: [125I] ANF (rat)); format: cell membranes, Cavia porcellus, Dunkin-Hartley, Adrenal gland, Membrane; conditions: Not Active = under 50% inhibition at 10 µM

Chain of Delta-type opioid receptor (P41143 whole entry): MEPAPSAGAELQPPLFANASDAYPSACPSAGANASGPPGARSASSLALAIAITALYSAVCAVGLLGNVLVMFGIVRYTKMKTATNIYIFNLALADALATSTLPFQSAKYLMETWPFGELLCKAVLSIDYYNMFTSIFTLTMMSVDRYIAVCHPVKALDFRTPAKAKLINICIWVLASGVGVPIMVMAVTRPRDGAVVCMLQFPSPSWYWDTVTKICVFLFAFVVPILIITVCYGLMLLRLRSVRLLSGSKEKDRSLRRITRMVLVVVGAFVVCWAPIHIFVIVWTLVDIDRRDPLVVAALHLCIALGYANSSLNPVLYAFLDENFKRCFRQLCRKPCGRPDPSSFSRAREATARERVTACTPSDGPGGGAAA

SMILES	IC50 [1]	IC50 ([2]; cho-k1)	IC50 [3]	IC50 [4]	Ki [4]	IC50 [5]	IC50 [6]	IC50 [7]	Ki [7]	IC50 ([1]; read-out: IC50) [nM]	Ki [1] [nM]	IC50 ([2]; read-out: IC50) [nM]	Ki [2] [nM]
O=C(O)c1cc(-c2ccc(F)cc2F)ccc1O [DIFLUNISAL]	Not Active	Not Active	Not Active	Not Active	Not Active	Not Active	Not Active	Not Active	Not Active	–	–	–	–
CCn1cc(C(=O)O)c(=O)c2cc(F)c(N3CCNC(C)C3)c(F)c21 (stereo unspecified) [LOMEFLOXACIN]	Not Active	Not Active	Not Active	Not Active	Not Active	Not Active	Not Active	Not Active	Not Active	–	–	–	–
CN(C)C(=O)Oc1cccc([N+](C)(C)C)c1.[Br-] [NEOSTIGMINE BROMIDE]	Not Active	Not Active	Not Active	Not Active	Not Active	Not Active	Not Active	Not Active	Not Active	–	–	–	–
CN1CCCC(CN2c3ccccc3Sc3ccccc32)C1 (stereo unspecified) [MEPAZINE]	–	–	Not Active	Not Active	Not Active	Not Active	Not Active	Not Active	Not Active	144	58	565	201
ClC(Cl)(Cl)Cl [CARBON TETRACHLORIDE]	Not Active	Not Active	Not Active	Not Active	Not Active	Not Active	Not Active	Not Active	Not Active	–	–	–	–
CCN(CC)CCCC(C)Nc1c2ccc(Cl)cc2nc2ccc(OC)cc12 (stereo unspecified) [QUINACRINE]	Not Active	–	Not Active	Not Active	Not Active	Not Active	Not Active	Not Active	Not Active	–	–	964	343
CC[C@H]1[C@@H]2C[C@H]3[C@@H]4N(C)c5ccccc5[C@]45C[C@@H]([C@@H]2[C@H]5O)N3[C@@H]1O [AJMALINE]	Not Active	Not Active	Not Active	Not Active	Not Active	Not Active	Not Active	Not Active	Not Active	–	–	–	–
C[C@H]1[C@H](NC(=O)/C(=N\OC(C)(C)C(=O)O)c2csc(N)n2)C(=O)N1S(=O)(=O)O [AZTREONAM]	Not Active	Not Active	Not Active	Not Active	Not Active	Not Active	Not Active	Not Active	Not Active	–	–	–	–
CO/N=C(\C(=O)N[C@@H]1C(=O)N2C(C(=O)O)=C(COC(C)=O)CS[C@H]12)c1csc(N)n1 [CEFOTAXIME]	Not Active	Not Active	Not Active	Not Active	Not Active	Not Active	Not Active	Not Active	Not Active	–	–	–	–
CC(C)c1c(C(=O)Nc2ccccc2)c(-c2ccccc2)c(-c2ccc(F)cc2)n1CC[C@@H](O)C[C@@H](O)CC(=O)O [ATORVASTATIN]	Not Active	Not Active	Not Active	Not Active	Not Active	Not Active	Not Active	Not Active	Not Active	–	–	–	–
CC(C)C[C@H]1C(=O)N2CCC[C@H]2[C@]2(O)O[C@](NC(=O)[C@@H]3C=C4c5cccc6[nH]cc(c56)C[C@H]4N(C)C3)(C(C)C)C(=O)N12 [ERGOCRYPTINE]	–	Not Active	Not Active	Not Active	Not Active	Not Active	Not Active	Not Active	Not Active	11	4.28	–	–
CCN(C(C)=O)c1cccc(-c2ccnc3c(C#N)cnn23)c1 [ZALEPLON]	Not Active	Not Active	Not Active	Not Active	Not Active	Not Active	Not Active	Not Active	Not Active	–	–	–	–
N[C@@H](Cn1ccc(=O)c(O)c1)C(=O)O [L-MIMOSINE]	Not Active	Not Active	Not Active	Not Active	Not Active	Not Active	Not Active	Not Active	Not Active	–	–	–	–
Nc1cc(-c2ccncc2)c[nH]c1=O [INAMRINONE]	Not Active	Not Active	Not Active	Not Active	Not Active	Not Active	Not Active	Not Active	Not Active	–	–	–	–
NC(=O)c1cccc(N)c1 [3-AMINOBENZAMIDE]	Not Active	Not Active	Not Active	Not Active	Not Active	Not Active	Not Active	Not Active	Not Active	–	–	–	–
NC(=O)c1cccnc1 [NIACINAMIDE]	Not Active	Not Active	Not Active	Not Active	Not Active	Not Active	Not Active	Not Active	Not Active	–	–	–	–
CCC1=C(C)CN(C(=O)NCCc2ccc(S(=O)(=O)NC(=O)N[C@H]3CC[C@H](C)CC3)cc2)C1=O [GLIMEPIRIDE]	Not Active	Not Active	Not Active	Not Active	Not Active	Not Active	Not Active	Not Active	Not Active	–	–	–	–
CC(C)NCC(O)c1ccccc1Cl (stereo unspecified) [CLORPRENALINE]	Not Active	Not Active	Not Active	Not Active	Not Active	Not Active	Not Active	Not Active	Not Active	–	–	–	–
CC(=O)OCC(=O)[C@@]12OC(C)(C)O[C@@H]1C[C@H]1[C@@H]3C[C@H](F)C4=CC(=O)C=C[C@]4(C)[C@@]3(F)[C@@H](O)C[C@@]12C [FLUOCINONIDE]	Not Active	Not Active	Not Active	Not Active	Not Active	Not Active	Not Active	Not Active	Not Active	–	–	–	–
COc1cccc2c1C(=O)c1c(O)c3c(c(O)c1C2=O)C[C@@](O)(C(C)=O)C[C@@H]3O[C@H]1C[C@H](N)[C@H](O)[C@H](C)O1 [DAUNORUBICIN]	Not Active	Not Active	Not Active	Not Active	Not Active	Not Active	Not Active	Not Active	Not Active	–	–	–	–
COc1ccccc1N	Not Active	Not Active	Not Active	Not Active	Not Active	Not Active	Not Active	Not Active	Not Active	–	–	–	–
N=C(N)c1ccc(OCCCCCOc2ccc(C(=N)N)cc2)cc1 [PENTAMIDINE]	–	–	Not Active	Not Active	Not Active	Not Active	Not Active	Not Active	Not Active	1210	491	–	–
CN(C)CCC=C1c2ccccc2CCc2ccccc21 [AMITRIPTYLINE]	–	–	Not Active	Not Active	Not Active	Not Active	Not Active	Not Active	Not Active	14	5.6	–	–

Source: ChEMBL document CHEMBL1909046, “DrugMatrix in vitro pharmacology data”
